This is an account of results in patent US10076525B2, “Sex steroid precursors alone or in combination with selective estrogen receptor modulators for the prevention and treatment of dyspareunia in postmenopausal women” (ENDORECHERCHE, INC., priority 2004, dated 2018).

One data set concerns PR. Briefly: Immunohistochemistry of PR in fifth vaginal segment. Conditions: OVX rats, 36 wk. The class given is in vivo, rat. The procedure:
Animals from the intact and OVX control groups received the vehicle alone.
Immunostaining was performed using Zymed SP kits (San Francisco, Calif.). Paraffin sections (4 μm) were deparaffinized in toluene and rehydrated through ethanol. Endogenous peroxidase activity was eliminated by preincubation with 3% H2O2 in methanol for 30 min. A microwave retrieval technique using citrate buffer (Tacha and Chen, 1994) was applied. After cooling the slides, non-specific binding was blocked using 10% goat serum for 20 min. Sections were then incubated for 1.5 h at room temperature with ERα (AB-1, Calbiochem, California), AR (N-20, Santa Cruz Biotechnology, California) or PR (Ab-4, NeoMarkers, California) antibodies, at 1:200, 1:250 and 1:250 respectively. After washing in PBS buffer, sections were incubated with biotinylated anti-rabbit secondary antibody for 10 min and thereafter with streptavidin-peroxidase for another 10 min. Diaminobenzidine was used as the chromogen to visualize the biotin/streptavidin-peroxidase complex, under microscope monitoring. Counterstaining was performed using #2 Gill's hematoxylin for 30 sec. For controls, immunoabsorption with an excess of the peptide used to raise the antibody, or substitution with non immune rabbit IgG, was performed.

Data set [1] in a line: Serum concentration of DHEA after intravaginal application. The class given is in vivo. To be noted: female, rat. The source says:
The insertion into the vagina of one suppository began on day 5 of the study and was continued once daily until day 18 of the study, for a total of 14 days of treatment. The suppository was gently placed in the vaginal opening and then delicately pushed about 2-3 mm inside the vagina with the help of a small, smooth glass stick, disinfected in 70% alcohol and dried between each animal.

On to `C[C@]12CC[C@H](O)CC1=CC[C@@H]1[C@@H]2CC[C@]2(C)C(=O)CC[C@@H]12` [DHEA, dehydroepiandrosterone], for which the entries for the “PR: semi-quantitative evaluation of labeled nuclei” value with PR (epithelium), with PR (lamina propria) and in the data set with PR (muscularis) were 0, 0 and 1, respectively. Moreover, in the data set with PR (muscularis), the “PR: labeling intensity” value is “++”. The AUC in data set [1] (0.33 mg) is 32 ± 4 ng·h/mL; in data set [1] (0.66 mg), 50 ± 7 ng·h/mL; in data set [1] (1 mg) it was 131 ± 23 ng·h/mL.
